Measurements as given in US20220357332A1, “TRIPHENYLENE DERIVATIVES FOR USE IN IMAGING BIOLOGICAL TISSUE OR FLUID” (CHROMATWIST LIMITED, priority 2019, published 2022).

What was measured:
[1] = Luminescent data (absorption, emission, quantum yield, brightness) in solvents; type: physicochemical
Description: Referring now to Table 1, there is shown luminescent data for Compounds 1 to 6.

[2] = Luminescence data for pairs of compounds absorbing at the same wavelength and emitting at different wavelengths; type: physicochemical; conditions: for ε × 10^3 (M^−1 cm^−1) at 355 nm / ε × 10^3 (M^−1 cm^−1) at 405 nm / ε × 10^3 (M^−1 cm^−1) at λMax / Absorption λMax / Emission λMax: solvent not given
Description: Referring now to Tables 2 to 4, there is provided luminescence data for pairs of compounds which are capable of absorbing at the same wavelength and emitting at different wavelengths.

[3] = Solubility (statements in words); type: physicochemical
[4] = test system: human liver; conditions: 45 min, 1 μg/ml
Experimental: All fluorophores were testing using donated human tissue which had been previously rejected for transplantation. All reagents were diluted in pre-warmed Dulbecos Modified Eagles Medium (DMEM) or CO2-independent media (both Invitrogen) to working concentrations and then perfused into pieces of liver for 45 min. Membrane and nuclear dyes were used simultaneously to visualise other cellular structures within the liver. Tissues were then imaged using multiphoton microscopy (825 nm). All fluorophores were used at 1 μg/ml (giving 0.1% of vehicle, being DMSO or THF). Testing of TpOx-2-Nap (green fluorophore) was done using DMSO as a solvent. […] was used for comparison, having been perfused through a separate piece of tissue from the same donor.

[5] = test system: Huh-7 cells; conditions: 1 hr, Huh-7 cells labelled with CMFDA
Description: To test the relative toxicity of tetrahydrofuran (THF) for liver cells, Huh-7 cells (hepatoma cell line used for a model of hepatocytes) were labelled with CMFDA (CellTracker Green, in DMSO, Invitrogen) and then treated with half log concentrations of THF (0.1%, 0.3%, 1%, 3%) for 1 hr. Cells were then imaged live using a Zeiss primovert fluorescence microscope.

[6] = Acetonitrile (ϵr 37.5, viscosity 0.38 cP)
[7] = Ethyl acetate (ϵr 6.0, viscosity 0.45 cP)
[8] = Octan-1-ol (ϵr 10.3, viscosity 7.36 cP)

| SMILES | Absorption λmax [1, 6] [nm] | Emission λmax [1, 6] [nm] | pSS [1, 6] [cm^−1] | Φ [1, 6] | Absorption λmax [1, 7] [nm] | Brightness [1, 7] [M⁻¹ cm⁻¹] | Emission λmax [1, 7] [nm] | pSS [1, 7] [cm^−1] | Φ [1, 7] | Absorption λmax [1, 8] [nm] | Brightness [1, 8] [M⁻¹ cm⁻¹] | Emission λmax [1, 8] [nm] | pSS [1, 8] [cm^−1] | Φ [1, 8] | QY [2] | pSS (cm^−1) [2] [cm^−1] | pSS (nm) [2] [nm] | Absorption % Abs at 355 nm [2] [%] | Absorption % Abs at 405 nm [2] [%] | ε × 10^3 (M^−1 cm^−1) at 355 nm [2] | further results |
| --- | --- | --- | --- | --- | --- | --- | --- | --- | --- | --- | --- | --- | --- | --- | --- | --- | --- | --- | --- | --- | --- |
| CCCCCOc1cc2c3cc(OCCCCC)c(OCCCCC)cc3c3c(cc(OCCCCC)c4oc(-c5ccc6cc7ccccc7cc6c5)nc43)c2cc1OCCCCC [Compound 5, 8-(anthracen-2-yl)-2,3,6,11,12-pentakis(pentyloxy)triphenyleno[1,2-d]oxazole] | 270 | 592 | 20200 | 0.21 ± 0.02 | 272 | 53 ± 5 | 536 | 18100 | 0.51 ± 0.04 | 270 | 50 ± 5 | 526 | 18000 | 0.56 ± 0.05 |  |  |  |  |  |  |  |
| CCCCCOc1cc2c3cc(OCCCCC)c(OCCCCC)cc3c3c(cc(OCCCCC)c4oc(-c5ccc(C#N)cc5)nc43)c2cc1OCCCCC [Compound 12, 4-(2,3,6,11,12-pentakis(pentyloxy)triphenyleno[1,2-d]oxazol-8-yl)benzonitrile] |  |  |  |  |  |  |  |  |  |  |  |  |  |  | 0.32 | 18800 | 286 | 12 | 14 | 13 × 10^3 M^−1 cm^−1 | ε × 10^3 (M^−1 cm^−1) at 405 nm [2]: 14 × 10^3 M^−1 cm^−1; ε × 10^3 (M^−1 cm^−1) at λMax [2]: 103 × 10^3 M^−1 cm^−1; Absorption λMax [2]: 272 nm; Emission λMax [2]: 558 nm |
| CCCCCOc1cc2c3cc(OCCCCC)c(OCCCCC)cc3c3c(cc(OCCCCC)c4oc(-c5ccc(N(C)C)cc5)nc43)c2cc1OCCCCC [Compound 22, N,N-dimethyl-4-(2,3,6,11,12-pentakis(pentyloxy)triphenyleno[1,2-d]oxazol-8-yl)aniline] |  |  |  |  |  |  |  |  |  |  |  |  |  |  | 0.70 | 13150 | 150 | 54 | 2 | 39 × 10^3 M^−1 cm^−1 | ε × 10^3 (M^−1 cm^−1) at 405 nm [2]: 1.5 × 10^3 M^−1 cm^−1; ε × 10^3 (M^−1 cm^−1) at λMax [2]: 72 × 10^3 M^−1 cm^−1; Absorption λMax [2]: 271 nm; Emission λMax [2]: 421 nm |
| CCCCCOc1cc2c3cc(OCCCCC)c(OCCCCC)cc3c3c(cc(OCCCCC)c4oc(-c5ccc6ccccc6c5)nc43)c2cc1OCCCCC [Compound 3, 8-(naphthalen-2-yl)-2,3,6,11,12-pentakis(pentyloxy)triphenyleno[1,2-d]oxazole] | 273 | 524 | 17600 | 0.51 ± 0.05 | 272 | 92 ± 9 | 494 | 16500 | 0.55 ± 0.05 | 272 | 91 ± 9 | 497 | 16600 | 0.71 ± 0.07 | 0.55 | 16500 | 222 | 17 | 7 | 29 × 10^3 M^−1 cm^−1 | Brightness [1, 6]: 44 ± 4 M⁻¹ cm⁻¹; ε × 10^3 (M^−1 cm^−1) at 405 nm [2]: 13 × 10^3 M^−1 cm^−1; ε × 10^3 (M^−1 cm^−1) at λMax [2]: 164 × 10^3 M^−1 cm^−1; Absorption λMax [2]: 272 nm; Emission λMax [2]: 494 nm; Solubility with DMSO as solvent ([3]; DMSO as a solvent, diluted in medium to 1 μg/ml): limited solubility; Uptake by hepatocytes [4]: Diffuse green fluorescence (12) was observed within the cytoplasm of the hepatocytes |
| CCCCCOc1cc2c(cc1OCCOCCOCCOC)c1cc(OCCOCCOCCOC)c(OCCOCCOCCOC)cc1c1cc(OCCOCCOCCOC)c3oc(C)nc3c21 [Compound 32, 2,3,6,12-tetrakis(2-(2-(2-methoxyethoxy)ethoxy)ethoxy)-8-methyl-11-(pentyloxy)triphenyleno[1,2-d]oxazole] |  |  |  |  |  |  |  |  |  |  |  |  |  |  |  |  |  |  |  |  | Water solubility ([3]; water): water soluble |
| CCCCCOc1cc2c3cc(OCCCCC)c(OCCCCC)cc3c3c(cc(OCCCCC)c4oc(-c5cccc6ccccc56)nc43)c2cc1OCCCCC [Compound 4, 8-(naphthalen-1-yl)-2,3,6,11,12-pentakis(pentyloxy)triphenyleno[1,2-d]oxazole] | 275 | 543 | 18000 | 0.36 ± 0.04 | 275 | 56 ± 5 | 510 | 16800 | 0.48 ± 0.04 | 275 | 67 ± 7 | 515 | 17000 | 0.55 ± 0.05 |  |  |  |  |  |  | Brightness [1, 6]: 30 ± 3 M⁻¹ cm⁻¹ |
| C1CCOC1 [THF, tetrahydrofuran] |  |  |  |  |  |  |  |  |  |  |  |  |  |  |  |  |  |  |  |  | Toxicity for liver cells (cell culture compared to the reference) ([5]; 0.1% and 0.3% THF): no differences in the cell culture compared to the reference; Toxicity for liver cells (dead cells) ([5]; 1% and 3% THF): increasing number of dead cells |
| CCCCCOc1cc2c3cc(OCCCCC)c(OCCCCC)cc3c3c(cc(OCCCCC)c4oc(CCCC)nc43)c2cc1OCCCCC [Compound 1, 8-butyl-2,3,6,11,12-pentakis(pentyloxy)triphenyleno[1,2-d]oxazole] | 281 | 367 | 8300 | 0.20 ± 0.02 | 281 | 29 ± 5 | 367 | 8300 | 0.18 ± 0.01 | 281 | 36 ± 7 | 367 | 8300 | 0.30 ± 0.03 |  |  |  |  |  |  | Brightness [1, 6]: 12 ± 2 M⁻¹ cm⁻¹ |
| CCCCCOc1cc2c3cc(OCCCCC)c(OCCCCC)cc3c3c(cc(OCCCCC)c4oc(-c5ccc(OC)cc5)nc43)c2cc1OCCCCC [Compound 45, 8-(4-methoxyphenyl)-2,3,6,11,12-pentakis(pentyloxy)triphenyleno[1,2-d]oxazole] |  |  |  |  |  |  |  |  |  |  |  |  |  |  | 0.40 | 14000 | 174 | 22 | 0 | 21 × 10^3 M^−1 cm^−1 | ε × 10^3 (M^−1 cm^−1) at 405 nm [2]: 0 × 10^3 M^−1 cm^−1; ε × 10^3 (M^−1 cm^−1) at λMax [2]: 97 × 10^3 M^−1 cm^−1; Absorption λMax [2]: 270 nm; Emission λMax [2]: 444 nm |
| CCCCCOc1cc2c3cc(OCCCCC)c(OCCCCC)cc3c3c(cc(OCCCCC)c4oc(-c5c6ccccc6cc6ccccc56)nc43)c2cc1OCCCCC [Compound 6, 8-(anthracen-9-yl)-2,3,6,11,12-pentakis(pentyloxy)triphenyleno[1,2-d]oxazole] | 253 | 630 | 23650 |  | 253 |  | 594 | 22700 |  | 255 |  | 384 | 13200 |  |  |  |  |  |  |  |  |
| CCCCCOc1cc2c3cc(OCCCCC)c(OCCCCC)cc3c3c(cc(OCCCCC)c4oc(-c5ccccc5)nc43)c2cc1OCCCCC [Compound 2, 2,3,6,11,12-pentakis(pentyloxy)-8-phenyltriphenyleno[1,2-d]oxazole] | 270 | 492 | 16700 | 0.46 ± 0.04 | 270 | 51 ± 5 | 467 | 15600 | 0.46 ± 0.04 | 271 | 64 ± 6 | 473 | 15800 | 0.61 ± 0.06 |  |  |  |  |  |  | Brightness [1, 6]: 38 ± 4 M⁻¹ cm⁻¹ |
